Measurements taken from ChEMBL document CHEMBL6127044, “An insight into G-quadruplexes: Identification and potential therapeutic targets in livestock viruses” (Eur J Med Chem, 2024).

System: SARS-CoV-2
Assay: Antiviral activity against SARS-CoV-2 Wuhan 5-2N variant infected in African green monkey Vero E6 cells measured 3 days post infection by WST-8 assay
Format: functional, organism-based
Conditions: Severe acute respiratory syndrome coronavirus 2, Wuhan 5-2N, Vero C1008, 72 h

CCc1c(C)c2cc3nc(cc4nc(cc5c(CC)c(C)c(cc1[nH]2)n5C)C(C)=C4CCC(=O)O)C(CCC(=O)O)=C3C
EC50: 1.16 nM
